Source: patent US20250205362A1, “LIPID NANOPARTICLES” (NATIONAL UNIVERSITY CORPORATION HOKKAIDO UNIVERSITY, priority 2022, published 2025)
{IBFQ} = Iowa Black FQ quencher

What was measured:
[1] = test system: factor 7 (F7); conditions: knockdown of factor 7 (F7) in mouse liver; cited from earlier work
[2] = Encapsulation rate of lipid nanoparticles (Ribogreen); format: physicochemical
Method: The encapsulation rate of the lipid nanoparticles was calculated by measuring the amount of encapsulated nucleic acid (the amount of ssODN in the case of RNP-ssODN) using an RNA intercalator Ribogreen (manufactured by Life Technologies).

[3] = Average particle diameter, PdI and zeta potential of lipid nanoparticles (dynamic light scattering); format: physicochemical
Method: The mean particle diameter (number average value), ζ-mean particle diameter, and polydispersity index (PdI) of the lipid nanoparticles in PBS(−) (pH 7.4), as well as the zeta potential in 10 mM HEPES buffer (pH 7.4), were measured using an analyzing device, Zetasizer Nano ZS ZEN3600 (Malvern), which utilizes dynamic light scattering.

[4] = test system: BALB/c mice; assay: Measurement of Fluc activity in tissues after iv Fluc mRNA-loaded lipid nanoparticles; format: in vivo, mouse; conditions: Example 1, FIG. 1; Fluc mRNA-loaded LNP 50/10/40/1.5; Balb/c mice iv 0.01 mg mRNA/kg, 6 hours
Method: First, lipid nanoparticles encapsulating Fluc mRNA (Fluc mRNA-loaded lipid nanoparticles) were intravenously injected into BALB/c mice (female, 4 weeks old) at a dose of 0.01 mg mRNA/kg body weight. Six hours after intravenous injection, the mice were euthanized, and each tissue was collected, frozen in liquid nitrogen, and stored at −80° C. The tissues were homogenized in passive lysis buffer (Promega) using a bead cell disrupter (Micro Smash MS-100R, TOMY Seiko). Tissue debris was removed by centrifugation and the supernatant was collected. Fluc activity in the supernatant was measured using a luciferase assay system (E1500, Promega) according to the manufacturer's protocol. Luminescence was measured using a luminometer (Luminescencer-PSN, ATTO). The protein concentration was determined using a commercially available measurement kit (BCA Protein Assay Kit, Pierce). Fluc activity was expressed as relative light units (RLU) per mg of protein.

[5] = test system: TTR gene; assay: Measurement of TTR-KO activity (serum TTR protein, ELISA); format: in vivo, mouse; conditions: FIG. 5; TTR-RNP-ssODN-loaded LNP; mouse serum 7 days after administration
Method: Lipid nanoparticles encapsulating Cas9/sgTTR-RNP (Cas9/sgTTR-RNP-loaded lipid nanoparticles) were intravenously injected to BALB/c mice (female, 4 weeks old) at the indicated doses. One week after intravenous injection, the mice were euthanized, blood was collected, and serum was isolated by centrifugation. The TTR protein concentration in the serum was determined using a commercially available ELISA kit (Prealbumin ELISA Kit (mouse), Aviva Systems Biology) according to the manufacturer's protocol. The serum TTR protein concentration of untreated mice was taken as 100%, and the relative value (%) of the serum TTR protein concentration of mice administered with each lipid nanoparticle was taken as the knockout activity (TTR-KO activity) of the lipid nanoparticle.

[6] = test system: sgTTR-G211-5FAM; assay: Tm value between sgRNA and ssODN by fluorescence quenching method; format: physicochemical; conditions: with sgTTR-G211-5FAM in Cas9 RNP; FIG. 21(B); n=3
Method: To measure the Tm value between sgRNA and ssODN in the RNP complex using the fluorescence quenching method, a FAM-modified sgRNA whose 5′ end was modified with the fluorescent substance FAM and a 20-base-long IBFQ-modified ssODN whose 3′ end was modified with the quenching substance IBFQ were used.
Specifically, IBFQ-modified ssODN (5 equivalents relative to RNP) was added to Cas9 RNP containing FAM-modified sgRNA (final RNP concentration: 2.5 μM) to form an RNP-ssODN complex. The resulting solution (10 μL) was incubated at 10° C., after which the temperature was increased by 1° C. at 10 second intervals. The fluorescence intensity was measured at each temperature from 11 to 70° C. using a thermal cycler (“Dice® Real Time System III”, TaKaRa Bio Inc.). The temperature at which the fluorescence intensity was maximized was taken as the measured Tm value (° C.).

[7] = Metabolic evaluation: lipid amount in the liver (LC/MS); format: in vivo, mouse; conditions: FIG. 4; Fluc mRNA-loaded LNP iv 0.5 mg mRNA/kg, BALB/c mice; 0.5, 4, 24 hours
Method: For liquid chromatography-mass spectrometry (LC/MS) for lipid quantification, liver samples stored at −80° C. prior to analysis were used. Mice were intravenously injected with lipid nanoparticles (0.5 mg RNA/kg body weight) and then liver tissue was harvested.
The tissue was homogenized in 200 μL of water, and the resulting tissue homogenate (50 μL) was subjected to an extraction with 400 μL of acetonitrile/isopropanol (50:50 (v/v)). The extract was centrifuged (4000 rpm, 10 min), the supernatant was filtered, and the filtrate was diluted 50-fold with water/acetonitrile/isopropanol (1:8:8 (v/v)) and transferred to a vial for LC/MS analysis using an Accucore. LC/MS was performed under the following conditions. The parent lipids and their predicted metabolites were detected under optimized conditions. Each lipid molecule was monitored using the following masses: [M+H]^+->916 (CL4H6), 864 (CL4F6), 982 (CL4F10-b-7), 752 (CL4F10-e-2). […]
Specifically, lipid nanoparticles encapsulating Fluc mRNA (Fluc mRNA-loaded lipid nanoparticles) were intravenously injected into BALB/c mice (female, 4 weeks old) at a dose of 0.5 mg mRNA/kg body weight. The mice were euthanized 0.5 hours, 4 hours, or 24 hours after the intravenous injection, and the amount of lipid derived from each lipid nanoparticle in the liver was measured.

[8] = Fluc mRNA-loaded LNP, cationic lipid/DSPC/cholesterol/PEG-DMG 50/10/40/1.5 mol%, Table 5
[9] = TTR-RNP-ssODN-loaded LNP (ssODN-TTR_3-40%), cationic lipid/DSPC/cholesterol/PEG-DMG 50/10/40/3.5 mol%, Table 8
[10] = Fluc mRNA-loaded LNP, comparison CL4F11-ζ-2, SM, ALC, MC3, Table 21
[11] = Fluc mRNA-loaded LNP, lipid/DSPC/cholesterol/PEG-DMG 50/10/40/1.5 (MC3: 50/10/38.5/1.5) mol%, Table 15
[12] = TTR-RNP-ssODN-loaded LNP, comparison CL4F11-ζ-2, SM, ALC, MC3, Table 20

## CCCCCC/C=C\COC(=O)CCCCCCCC(CCCCCCCC(=O)OC/C=C\CCCCCC)OC(=O)CCCN(C)C [L319]
[1]
  ED50 in F7 knockdown: 0.01 mg siRNA/kg

## 7-(4-(dipropylamino)butyl)-7-hydroxytridecane-1,13-diylbis(3-hexylnonanoate) [CL4F9-b-6]
[2]; [8]
  Encapsulation rate: 91.4%
[2]; [9]
  Encapsulation rate: 84.9%
[3]; [8]
  Number-average particle diameter: 45.1 nm
  PdI: 0.267
  ζ-average: 81.5 nm
  ζ-potential: −4.32 mV
[3]; [9]
  Number-average particle diameter: 99.6 nm
  PdI: 0.145
  ζ-average: 141.5 nm
  ζ-potential: −0.10 mV
[4]
  Fluc activity (gene transfer ability) in liver and spleen: equal to or greater than that of CL4F6
[5]
  serum TTR activity / gene knockout versus CL4F6: lower serum TTR activity and higher gene knockout

## ssODN-40%-3IBFQ: IBFQ bound to the 3′ end of ssODN-40% (SEQ ID NO 23), 40% matched with the ssON-paired region (DNA AAAAAAAGACGTGGAAAATT; 3' {IBFQ}, sugars by position and backbone not given here)
[6]
  Tm value (fluorescence quenching): 32 °C

## CCCCC/C=C\C/C=C\CCCCCCCCOC1(OCCCCCCCC/C=C\C/C=C\CCCCC)CCN(C)CC1 [YSK05]
[1]
  ED50 in F7 knockdown: 0.06 mg siRNA/kg

## ssODN-80%-3IBFQ: IBFQ bound to the 3′ end of ssODN-80% (SEQ ID NO 22), 80% matched with the ssON-paired region (DNA AACTGTAGACGTGGCTGTTT; 3' {IBFQ}, sugars by position and backbone not given here)
[6]
  Tm value (fluorescence quenching): 62 °C

## CCCCC(CC)CCCCC(=O)OCCCCCCC(O)(CCCCCCOC(=O)CCCCC(CC)CCCC)CCCCN(CCC)CCC (stereo not drawn) [CL4F10-e-2, 7-(4-(dipropylamino)butyl)-7-hydroxytridecane-1,13-diylbis(6-ethyldecanoate)]
[7]
  amount of lipid in the liver (metabolism): most of it was degraded within 24 hours after administration

## 7-(4-(dipropylamino)butyl)-7-hydroxytridecane-1,13-diylbis(3-heptyldecanoate) [CL4F10-b-7]
[2]; [8]
  Encapsulation rate: 94.6%
[2]; [9]
  Encapsulation rate: 86.0%
[3]; [8]
  Number-average particle diameter: 35.3 nm
  PdI: 0.196
  ζ-average: 65.3 nm
  ζ-potential: −3.30 mV
[3]; [9]
  Number-average particle diameter: 82.5 nm
  PdI: 0.104
  ζ-average: 127.1 nm
  ζ-potential: −0.48 mV
[4]
  Fluc activity (gene transfer ability) in liver and spleen: equal to or greater than that of CL4F6
[5]
  serum TTR activity / gene knockout versus CL4F6: lower serum TTR activity and higher gene knockout

## CCCCC/C=C\C/C=C\CCCCCCCCC(CCCCCCCC/C=C\C/C=C\CCCCC)OC(=O)CCCN(C)C [MC3, DLin-MC3-DMA, reference compound]
[2]; [10]
  Encapsulation rate: 87.1%
[2]; [11]
  Encapsulation rate: 79.3%
[2]; [12]
  Encapsulation rate: 78.7%
[3]; [10]
  Number-average particle diameter: 71.0 nm
  PdI: 0.190
  ζ-average: 112.4 nm
  ζ-potential: −2.17 mV
[3]; [11]
  Number-average particle diameter: 48.0 nm
  PdI: 0.198
  ζ-average: 68.6 nm
  ζ-potential: 2.19 mV
[3]; [12]
  Number-average particle diameter: 82.7 nm
  PdI: 0.213
  ζ-average: 155.9 nm
  ζ-potential: 0.52 mV
[1]
  ED50 in F7 knockdown: 0.005 mg siRNA/kg

## CCCCCCCC/C=C\CCCCCCCC(=O)OCCCCCCC(O)(CCCCCCOC(=O)CCCCCCC/C=C\CCCCCCCC)CCCCN(C(C)C)C(C)C [CL4H6, 7-(4-(diisopropylamino)butyl)-7-hydroxytridecane-1,13-diyl dioleate, reference compound]
[2]; [9]
  Encapsulation rate: 83.5%
[3]; [9]
  Number-average particle diameter: 80.1 nm
  PdI: 0.254
  ζ-average: 136.5 nm
  ζ-potential: 2.83 mV
[7]
  amount of lipid in the liver (metabolism): almost completely disappeared from the liver 24 hours after administration
